Where a name gives a salt, the structure may show the parent alone.
Tests used:
[1] = tested on: mice having neuropathic pain induced by a spared nerve injury (SNI); conditions: for analgesic efficacy at the chronic stage of the neuropathic pain / analgesic efficacy at the earlier stage of the neuropathic pain: agonist alone; for analgesic efficacy upon co-administration of CCG 50014 (RGS4 inhibitor): at 14, 28, or even 56 days after SNI, CCG50014 intrathecally 5 minutes before agonist (FIGS. 3 and 4); for analgesic effect of 1 nmol at 14 days after SNI / analgesic effect at 28 days after SNI / analgesic effect at 56 days after SNI / analgesic effect at 14 days after SNI / higher dose needed at 56 days after SNI for analgesic effect similar to that at 14 days after SNI / neuropathic pain induced by SNI (withdrawal threshold): mouse; for analgesic effect of 1 nmol at 14 days after SNI / analgesic effect at 28 days after SNI / analgesic effect at 56 days after SNI / analgesic effect at 14 days after SNI / higher dose needed at 56 days after SNI for analgesic effect similar to that at 14 days after SNI: intrathecal; for analgesic effect of 1 nmol at 14 days after SNI: alone (FIGS. 5 and 6); for analgesic effect at 28 days after SNI / analgesic effect at 56 days after SNI / analgesic effect at 14 days after SNI / higher dose needed at 56 days after SNI for analgesic effect similar to that at 14 days after SNI: alone; for analgesic effect at 14 days after SNI: as doses increased; for higher dose needed at 56 days after SNI for analgesic effect similar to that at 14 days after SNI: relative to 1 nmol at 14 days; for neuropathic pain induced by SNI (withdrawal threshold): single intrathecal injection, agonist alone (FIGS. 1 and 2)
Text: To prepare neuralgia-induced mouse models, mice having a genetic background of 129S4/SvJae×C57BL/6J were used. According to a modification of the method described in the related art, a spared nerve injury (SNI) of sciatic nerve was induced in the mice.
Briefly, the mice were anesthetized with 3% isoflurane in a mixture of N2O/O2 gas. At the right hindlimb, incision was made at a mid-thigh level, and peripheral branches (sural, common peroneal, and tibial nerves) of the sciatic nerve were exposed. Both tibial and common peroneal nerves were tightly ligated with 8.0 silk thread together, and a 1-2 mm section of the two nerves was removed. The sural nerve was carefully preserved by avoiding any nerve stretch or nerve contact with surgical tools. Muscle and skin were closed in two distinct layers with chromic catgut 6.0 and silk 6.0 suture, respectively. During recovery, animals were housed in clear plastic cages with a thick layer of sawdust bedding.
Clonidine (2-[(2,6-dichlorophenyl)amino-2-imidazoleine hydrochloride, alpha2AR agonist) was purchased from Sigma (St. Louis, Mo., USA). CCG50014 was diluted in 12% dimethyl sulfoxide (DMSO) in saline.
Each drug was administered by intrathecal injection based on the technique developed by Hylden and Wilcox. […] drugs were dissolved in 5 μl of vehicle. Briefly, for mouse intrathecal injections, a 30-gauge needle (length: 0.5 inch) connected to a 50 μl Hamilton syringe was inserted into the subarachnoid space between the lumbar vertebrae L5 and L6. A flick of the mouse tail provided a reliable indicator that the needle had penetrated the dura meter. The syringe was held in position for a few seconds after the injection of 5 μl/mouse.
To evaluate a degree of pain alleviation in each of the neuralgic mice, a degree of pain responses to mechanical stimuli was measured by measuring mechanical threshold based on the method described in the related art. In detail, mechanical withdrawal thresholds were determined for all mice at day 0 prior to neuropathic surgery in order to obtain normal baseline values of withdrawal threshold to mechanical stimuli. For 56 days post-SNI surgery, all experimental animals were behaviorally tested to confirm the development of mechanical allodynia. […] The test was performed using an ascending series of von Frey filaments (North Coast Medical, Morgan Hill, Calif.). Mice were placed in an acrylic cylinder (6.5 cm in diameter and 17 cm in height) on an elevated metal mesh grid and allowed to acclimate for 30 minutes before testing. Each monofilament (0.008 g, 0.02 g, 0.07 g, 0.16 g, 0.4 g, and 0.6 g) was applied 6 times in ascending order to the midplantar region of each hind paw of mouse. The monofilament that produced a paw withdrawal, flinch, or lick in 3 of 6 applications was defined as the 50% paw withdrawal threshold. The behavioral investigator was blinded to the treatment of animals during the experiments.
(§1) Results of each of the experiments above are expressed as means±SEM unless otherwise stated. Data analysis and statistical comparisons were performed using GraphPad Prism version 5.0 (GraphPad Software, San Diego, Calif.). Comparison between two groups was made using the Student's t-test. For multiple comparisons, ANOVA followed by post hoc Tukey test was performed. Differences with P<0.05 were considered significant.

[2] = tested on: motion performance; conditions: mouse
Method: To evaluate degradation of motion performance capability as one of side effects caused by the low blood pressure, rotarod test was performed on each of the mice administered with clonidine or the RGS4 inhibitor. […] All mice were tested 24 hours before the actual rotarod test, and mice that were able to remain on the rod for at least 120 seconds were included in the experiment. 30 minutes after clonidine injection, each animal was subsequently tested on the rotarod over 2-minutes period and their performance time on the bar (in seconds) was measured. The test was repeated 3 times and the mean value for each animal was recorded.
as §1, with “Test results” for “Results of each of the experiments above”

[3] = tested on: systolic blood pressure (SBP); conditions: mouse
Method: To evaluate the induction of low blood pressure, systolic blood pressure (SBP) was measured using a non-invasive computerized tail-cuff system as previously described in the art (PowerLab system, ADI Instrument Pry Ltd., Chain Hills, NSW, Australia). Briefly, animals were acclimated for 30 minutes in a quiet test room prior to obtaining cardiovascular measurements. At the end of the 1 hour period, the SBP was measured. This experiment was repeated 3 times and the mean value for each animal was recorded. […] All cardiovascular measurements were obtained between 1 pm to 3 pm in order to avoid changes due to normal circadian rhythms.
as §1, with “Test results” for “Results of each of the experiments above”

[4] = cited from earlier work

Clc1cccc(Cl)c1N=C1NCCN1 [clonidine, 2-[(2,6-dichlorophenyl)amino-2-imidazoleine hydrochloride]
analgesic efficacy upon co-administration of dynasore ([1]; mouse SNI, 56th day after SNI, dynasore intrathecally 5 minutes before clonidine (FIG. 9)): restored
analgesic efficacy at the chronic stage of the neuropathic pain ([1]; mouse SNI): lost the analgesic efficacy
analgesic efficacy at the earlier stage of the neuropathic pain ([1]; mouse SNI): exhibited the analgesic efficacy
analgesic efficacy upon co-administration of CCG 50014 (RGS4 inhibitor) ([1]; mouse SNI): maintained
analgesic effect of 1 nmol at 14 days after SNI [1]: significant analgesic effect
analgesic effect at 28 days after SNI [1]: decreased
analgesic effect at 56 days after SNI [1]: completely disappeared
analgesic effect at 14 days after SNI [1]: potent analgesic effect
higher dose needed at 56 days after SNI for analgesic effect similar to that at 14 days after SNI [1]: 10 fold
neuropathic pain induced by SNI (withdrawal threshold) [1]: alleviated
decreased motor performance side effect ([2]; 1 nmol in combination with the RGS4 inhibitor (FIG. 8)): no side effects
motor performance (rotarod) ([2]; clonidine 10 nmol alone, 30 minutes after injection (FIG. 8)): rapidly decreased motor performance
low blood pressure side effect ([3]; 1 nmol in combination with the RGS4 inhibitor (FIG. 7)): no side effects
blood pressure (SBP) change ([3]; clonidine 10 nmol alone (effective dose), 30 minutes after treatment (FIG. 7)): significant symptoms of low blood pressure
side effect ([4]; healthy adult male, concentration gradient from about 150 μg to about 450 μg): no side effect
side effects ([4]; human, 1 μg/kg intravenously with lidocaine): no statistically significant side effects
harmful side effect ([4]; human, 5 μg/kg orally): no harmful side effect

Cc1cccc([C@H](C)c2c[nH]cn2)c1C.Cl [dexmedetomidine, 4-[(1S)-1-(2,3-dimethylphenyl)ethyl]-1H-imidazole hydrochloride]
analgesic efficacy at the chronic stage of the neuropathic pain ([1]; mouse SNI): lost the analgesic efficacy
analgesic efficacy at the earlier stage of the neuropathic pain ([1]; mouse SNI): exhibited the analgesic efficacy
analgesic efficacy upon co-administration of CCG 50014 (RGS4 inhibitor) ([1]; mouse SNI): maintained
analgesic effect of 1 nmol at 14 days after SNI [1]: significant analgesic effect
analgesic effect at 28 days after SNI [1]: decreased
analgesic effect at 56 days after SNI [1]: completely disappeared
analgesic effect at 14 days after SNI [1]: potent analgesic effect
higher dose needed at 56 days after SNI for analgesic effect similar to that at 14 days after SNI [1]: 3 fold
neuropathic pain induced by SNI (withdrawal threshold) [1]: alleviated

— patent publication US10555932B2, “Method of restoring analgesic efficacy of alpha2-adrenoceptor agonists in neuropathic pain treatment” (KOREA INSTITUTE OF SCIENCE AND TECHNOLOGY, priority 2016, dated 2020)
